Measurements taken from DBAASP.
Values after ≈ are worked out from the molar mass of the structure shown.

Legend:
Assay in all cases: ≥ marks a high value that may be exact or a test limit, other limits are often not marked, values filed in µg/mL are converted to µM
Bacillus subtilis = tested on: Bacillus subtilis
Escherichia coli = tested on: Escherichia coli
Pseudomonas aeruginosa = tested on: Pseudomonas aeruginosa
Staphylococcus aureus = tested on: Staphylococcus aureus

| Structure (SMILES) | MIC (Bacillus subtilis) [µM] | MIC (Escherichia coli) [µM] | MIC (Pseudomonas aeruginosa) [µM] | MIC (Staphylococcus aureus) [µM] |
| --- | --- | --- | --- | --- |
| CC[C@H](C)[C@H](N)C(=O)N[C@@H](CC(N)=O)C(=O)N[C@@H](Cc1c[nH]c2ccccc12)C(=O)N[C@@H](CCCCN)C(=O)N[C@@H](CCCCN)C(=O)N[C@H](C(=O)N[C@@H](C)C(=O)N[C@@H](CO)C(=O)N[C@H](C(=O)NCC(=O)N[C@@H](CCCCN)C(=O)N[C@@H](CCC(=O)O)C(=O)N[C@H](C(=O)N[C@@H](CC(C)C)C(=O)N[C@@H](CCCCN)C(N)=O)C(C)C)[C@@H](C)CC)[C@@H](C)CC [INWKKIASIGKEVLK] | ≥ 100 | 100 (≈ 173 µg/mL) | – | – |
| CC[C@H](C)[C@H](N)C(=O)N[C@@H](CC(N)=O)C(=O)N[C@@H](Cc1c[nH]c2ccccc12)C(=O)N[C@@H](CC(C)C)C(=O)N[C@@H](CCCN=C(N)N)C(=O)N[C@@H](CC(C)C)C(=O)NCC(=O)N[C@@H](CCCN=C(N)N)C(=O)N[C@@H](CCCN=C(N)N)C(=O)N[C@H](C(=O)N[C@@H](CC(C)C)C(=O)NCC(=O)N[C@@H](C)C(=O)N[C@@H](CC(C)C)C(N)=O)[C@@H](C)CC [INWLRLGRRILGAL] | 17.5 (≈ 28.9 µg/mL) | > 100 | – | – |
| CC(C)C[C@H](NC(=O)CNC(=O)[C@H](C)NC(=O)[C@H](CCCCN)NC(=O)[C@H](CC(C)C)NC(=O)[C@H](CCCCN)NC(=O)[C@H](C)NC(=O)[C@H](CC(C)C)NC(=O)CNC(=O)[C@H](C)NC(=O)[C@H](CCCCN)NC(=O)[C@H](Cc1c[nH]c2ccccc12)NC(=O)[C@H](CCCCN)NC(=O)[C@H](C)NC(=O)[C@H](CC(C)C)NC(=O)CNC(=O)[C@H](C)NC(=O)[C@H](CCCCN)NC(=O)[C@H](CC(C)C)NC(=O)[C@@H](N)CCCCN)C(=O)N[C@@H](C)C(N)=O [KLKAGLAKWKAGLAKLKAGLA] | – | 15 (≈ 32 µg/mL) | > 120 | 120 (≈ 256 µg/mL) |
| CC[C@H](C)[C@H](NC(=O)[C@H](CO)NC(=O)[C@H](C)NC(=O)[C@@H](NC(=O)[C@H](CCCCN)NC(=O)[C@H](CCCCN)NC(=O)[C@H](Cc1c[nH]c2ccccc12)NC(=O)[C@@H](N)CC(N)=O)[C@@H](C)CC)C(=O)NCC(=O)N[C@@H](CCCCN)C(=O)N[C@@H](CCC(=O)O)C(=O)N[C@H](C(=O)N[C@@H](CC(C)C)C(=O)N[C@@H](CCCCN)C(=O)N[C@@H](C)C(=O)N[C@@H](CC(C)C)C(N)=O)C(C)C [NWKKIASIGKEVLKAL] | ≥ 46 | 21 (≈ 37.7 µg/mL) | – | – |

The remaining lines, values ahead:

| MIC (Bacillus subtilis) [µM] | MIC (Escherichia coli) [µM] | MIC (Pseudomonas aeruginosa) [µM] | MIC (Staphylococcus aureus) [µM] | Structure (SMILES) |
| --- | --- | --- | --- | --- |
| 10 (≈ 17.2 µg/mL) | 10 (≈ 17.2 µg/mL) | – | – | CC[C@H](C)[C@H](N)C(=O)N[C@@H](CC(N)=O)C(=O)N[C@@H](Cc1c[nH]c2ccccc12)C(=O)N[C@@H](CCCCN)C(=O)N[C@@H](CCCCN)C(=O)N[C@H](C(=O)N[C@@H](Cc1ccccc1)C(=O)N[C@@H](CCC(=O)O)C(=O)N[C@@H](CO)C(=O)N[C@H](C(=O)N[C@@H](CCCCN)C(=O)N[C@@H](CC(N)=O)C(=O)N[C@@H](CC(C)C)C(=O)N[C@H](C(N)=O)C(C)C)C(C)C)[C@@H](C)CC [INWKKIFESVKNLV] |
| 15 (≈ 25.8 µg/mL) | 15 (≈ 25.8 µg/mL) | – | – | CC[C@H](C)[C@H](N)C(=O)N[C@@H](CC(N)=O)C(=O)N[C@@H](Cc1c[nH]c2ccccc12)C(=O)N[C@@H](CCCCN)C(=O)N[C@@H](CO)C(=O)N[C@H](C(=O)N[C@@H](Cc1ccccc1)C(=O)N[C@@H](CCC(=O)O)C(=O)N[C@@H](CCCCN)C(=O)N[C@H](C(=O)N[C@@H](CCCCN)C(=O)N[C@@H](CC(N)=O)C(=O)N[C@@H](CC(C)C)C(=O)N[C@H](C(N)=O)C(C)C)C(C)C)[C@@H](C)CC [INWKSIFEKVKNLV] |
